We go through one compound from US20120070443A1, “PDE1 AS A TARGET THERAPEUTIC IN HEART DISEASE” (UNIVERSITY OF UTAH RESEARCH FOUNDATION, priority 2008, published 2012).

“Also recorded” adds a separate entry of the source. Where two headings read alike, the source gives them in different places.

Assay [1] concerns PDE1. The assay is described as follows: cGMP-hydrolytic activity in mouse left ventricle preparations, Ca2+-dependent (Ca2+/calmodulin-stimulated) activity (PDE1).
Experimental: (§1) Measurements were made in the presence and absence of calcium and calmodulin as described in Vandeput et al 2009. All measurements were made at a cGMP concentration of 0.1 μM. ‘Ca^2+-independent activity’ refers to activity measured in the absence of calcium and calmodulin; this includes PDE5 activity and unstimulated PDE1 activity. ‘Ca^2+-dependent activity’ refers to activity measured in the presence of calcium and calmodulin minus activity measured in their absence (i.e., minus Ca^2+-independent activity); this activity is comprised solely of Ca^2+/calmodulin-stimulated PDE1 activity.
(§2) The effects of sildenafil on cGMP-hydrolytic activity in preparations from normal (pre-diseased) and diseased mouse left ventricle were then examined [Vandeput 2009].
Assay [2] deals with cGMP-hydrolytic activity in preparations from human left ventricles (PDE1). The assay is described as follows: cGMP-hydrolytic activity in preparations from human left ventricles. The format is biochemical. The conditions noted are these: human left ventricle, 0.1 μM cGMP. Here is the method:
Similar studies were carried out in preparation from human myocardium [Vandeput 2009]. […] From this it was inferred that PDE1 inhibition can have cardioprotective and other beneficial effects in human myocardium.

For assay [3], the system named is PDE1. The assay is described as follows: cAMP-hydrolytic activity in preparations from normal and infarcted mouse hearts. The conditions noted are these: 1 μM (1000 nM) sildenafil.
Assay [4] relates to ischemic injury. The conditions noted are these: rabbit model; cited from earlier work.
For assay [5], the system named is isoproterenol-induced cardiac hypertrophy. The conditions noted are these: rats, cited from earlier work.
Assay [6] deals with PDE5. The conditions noted are these: 1 μM (1000 nM) sildenafil; mouse left ventricle; 0.1 μM cGMP.
Experimental: as §1, §2
For assay [7], the system named is hypertrophy following aortic constriction. The conditions noted are these: mice; cited from earlier work.
The test system of assay [8] is ischemic injury. The conditions noted are these: mouse model; cited from earlier work.
Assay [9] deals with left anterior descending coronary artery ligation. The conditions noted are these: mice, left anterior descending coronary arteries ligated; cited from earlier work.
Assay [10] has as its system cGMP-hydrolytic activity in preparations from mouse left ventricles. The assay is described as follows: cGMP-hydrolytic activity in preparations from mouse left ventricle (total activity). The conditions noted are these: 0.1 μM cGMP.
Experimental: as §1, §2
Assay [11] concerns doxorubicin toxicity. The conditions noted are these: mouse model of doxorubicin toxicity; cited from earlier work.
The test system of assay [12] is isolated mouse ventricular myocytes. The conditions noted are these: cited from earlier work.

Consider `CCCc1nn(C)c2c(=O)[nH]c(-c3cc(S(=O)(=O)N4CCN(C)CC4)ccc3OCC)nc12` [sildenafil], for which, in assay [1] (10 nM sildenafil, 0.1 μM cGMP), the “inhibition of PDE1 (cGMP hydrolysis)” value is listed as “not PDE1”. Also, the “inhibition of PDE1 (cGMP hydrolysis, Ca2+/calmodulin-stimulated activity)” value in assay [1] (1 μM (1000 nM) sildenafil, 0.1 μM cGMP) was “inhibiting both PDE5 and PDE1; also recorded: inhibits PDE1 activity”. Moreover, in [1] (1 μM sildenafil, cGMP hydrolysis), the “magnitude of inhibition attributable to PDE1 relative to that attributable to PDE5” value is recorded as “much greater magnitude”. Further, the “inhibition of cGMP-hydrolytic activity” value in [2] (10 nM sildenafil) is “no inhibition of cGMP-hydrolytic activity could be detected”; in [2] (1 μM (1000 nM) sildenafil), “significant inhibition; also recorded: profound”; in assay [10] (10 nM sildenafil, normal (pre-diseased) and diseased mouse left ventricle), “some inhibition”; in assay [10] (1 μM sildenafil, compared with 10 nM, normal and diseased mouse left ventricle) it was “Inhibition was greater”. In addition, in assay [3] (normal and infarcted mouse hearts, absence of calcium and calmodulin), the “inhibition of cAMP-hydrolytic activity” value is reported as “inhibits cAMP-hydrolytic activity; also recorded: significantly inhibits”. For the same compound, the “relative inhibition of cAMP-hydrolytic activity” value in assay [3] (presence of calcium and calmodulin, compared with their absence) is listed as “of greater magnitude”. In addition, the “infarct size following ischemic injury” value in assay [4] and in assay [8] was “reduces infarct size” throughout. Besides, the survival result in assay [5] (isoproterenol-induced cardiac hypertrophy) was “increase in survival”. Also, in assay [5], the “development of isoproterenol-induced cardiac hypertrophy” value is listed as “block the development”. Also, in [6], the “inhibition of PDE5 (cGMP hydrolysis)” value is “inhibiting both PDE5 and PDE1”. Moreover, the “development of hypertrophy following aortic constriction” value in assay [7] was “blocks and reverses”. Besides, the apoptosis and survival result in assay [9] was “anti-apoptotic and survival benefits”. For the same compound, in assay [11], the apoptosis result is reported as “anti-apoptotic effects”. The “development of contractile dysfunction” value in [11] is given as “protect against the development of contractile dysfunction”. For the same compound, in [12], the “apoptotic consequences of hypoxia” value was “protects against”.
